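Growth conditions: 96-well plates. Treatment: test compound, 48 hours, 5 concentrations. Analysis: linear interpolation between bracketing concentrations; unreached endpoints set to highest concentration. TGI: concentration producing complete growth inhibition.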
Tests used:
Experiment in all cases: NCI-60 cell line screen, 48 h
[1] = system: NCI-H23 lung
[2] = system: DMS 114 small cell lung
[3] = system: DMS 273 small cell lung
[4] = system: A549 NSCLC
[5] = system: SNB-75 CNS
[6] = system: EKVX NSCLC
[7] = system: OVCAR-3 ovarian
[8] = system: LOX IMVI melanoma
[9] = system: TK-10 renal
[10] = system: ACHN renal
[11] = system: SK-MEL-2 melanoma
[12] = system: UO-31 renal
[13] = system: KM12 colon
[14] = system: SR leukemia
[15] = system: OVCAR-4 ovarian
[16] = system: CCRF-CEM leukemia
[17] = system: HOP-92 NSCLC
[18] = system: RXF-631 renal
[19] = system: DLD-1 colon
[20] = system: M14 melanoma
[21] = system: 786-0 renal
[22] = system: SNB-78 CNS
[23] = system: RXF 393 renal
[24] = system: A498 renal
[25] = system: SK-MEL-5 melanoma
[26] = system: UACC-257 melanoma
[27] = system: HT29 colon
[28] = system: CAKI-1 renal
[29] = system: OVCAR-8 ovarian
[30] = system: MOLT-4 leukemia
[31] = system: IGROV1 ovarian
[32] = system: SK-MEL-28 melanoma
[33] = system: HCC-2998 colon
[34] = system: HCT-116 colon
[35] = system: SK-OV-3 ovarian
[36] = system: HOP-62 NSCLC
[37] = system: MALME-3M melanoma
[38] = system: KM20L2 colon
[39] = system: HCT-15 colon
[40] = system: NCI-H460 lung
[41] = system: LXFL 529 NSCLC
[42] = system: XF 498 CNS
[43] = system: SW-620 colon
[44] = system: U251 CNS
[45] = system: RPMI-8226 leukemia
[46] = system: NCI-H226 lung
[47] = system: K-562 leukemia
[48] = system: OVCAR-5 ovarian
[49] = system: SN12C renal
[50] = system: M19-MEL melanoma
[51] = system: NCI-H522 lung
[52] = system: SNB-19 CNS
[53] = system: SF-539 CNS
[54] = system: SF-295 CNS
[55] = system: COLO 205 colon
[56] = system: SF-268 CNS
[57] = system: HL-60(TB) leukemia
[58] = system: HOP-18 NSCLC
[59] = system: UACC-62 melanoma

SMILES: N#C/C1=C(\N)CCSSSC1
- TGI [1]: > 100 µM
- TGI [2]: > 100 µM
- TGI [3]: > 100 µM
- TGI [4]: > 100 µM
- TGI [5]: > 100 µM
- TGI [6]: > 100 µM
- TGI [7]: > 100 µM
- TGI [8]: > 100 µM
- TGI [9]: > 100 µM
- TGI [10]: > 100 µM
- TGI [11]: 90.5 µM
- TGI [12]: > 100 µM
- TGI [13]: > 100 µM
- TGI [14]: > 100 µM
- TGI [15]: > 100 µM
- TGI [16]: > 100 µM
- TGI [17]: 95.6 µM
- TGI [18]: > 100 µM
- TGI [19]: > 100 µM
- TGI [20]: 95.9 µM
- TGI [21]: > 100 µM
- TGI [22]: > 100 µM
- TGI [23]: > 100 µM
- TGI [24]: 58 µM
- TGI [25]: 60.9 µM
- TGI [26]: > 100 µM
- TGI [27]: > 100 µM
- TGI [28]: > 100 µM
- TGI [29]: 43.2 µM
- TGI [30]: > 100 µM
- TGI [31]: > 100 µM
- TGI [32]: > 100 µM
- TGI [33]: > 100 µM
- TGI [34]: > 100 µM
- TGI [35]: > 100 µM
- TGI [36]: 89.6 µM
- TGI [37]: > 100 µM
- TGI [38]: 49.3 µM
- TGI [39]: 98.2 µM
- TGI [40]: 51.2 µM
- TGI [41]: > 100 µM
- TGI [42]: > 100 µM
- TGI [43]: > 100 µM
- TGI [44]: > 100 µM
- TGI [45]: > 100 µM
- TGI [46]: 65.8 µM
- TGI [47]: > 100 µM
- TGI [48]: > 100 µM
- TGI [49]: > 100 µM
- TGI [50]: > 100 µM
- TGI [51]: 45.6 µM
- TGI [52]: > 100 µM
- TGI [53]: > 100 µM
- TGI [54]: 50.8 µM
- TGI [55]: > 100 µM
- TGI [56]: > 100 µM

SMILES: C/C(Cc1ccccc1)=N\NC(N)=S
- TGI [1]: > 100 µM
- TGI [2]: > 100 µM
- TGI [3]: > 100 µM
- TGI [5]: > 100 µM
- TGI [57]: > 100 µM
- TGI [8]: > 100 µM
- TGI [10]: > 100 µM
- TGI [15]: > 100 µM
- TGI [16]: > 100 µM
- TGI [17]: > 100 µM
- TGI [18]: > 100 µM
- TGI [58]: > 100 µM
- TGI [20]: > 100 µM
- TGI [22]: > 100 µM
- TGI [23]: > 100 µM
- TGI [24]: > 100 µM
- TGI [30]: > 100 µM
- TGI [31]: > 100 µM
- TGI [32]: > 100 µM
- TGI [35]: > 100 µM
- TGI [59]: > 100 µM
- TGI [38]: > 100 µM
- TGI [39]: > 100 µM
- TGI [40]: > 100 µM
- TGI [41]: > 100 µM
- TGI [42]: > 100 µM
- TGI [44]: > 100 µM
- TGI [45]: > 100 µM
- TGI [47]: > 100 µM
- TGI [49]: > 100 µM
- TGI [50]: > 100 µM
- TGI [52]: > 100 µM
- TGI [53]: > 100 µM
- TGI [55]: > 100 µM

Reference: PubChem BioAssay (NCI)
